In ChEMBL document CHEMBL1909046, “DrugMatrix in vitro pharmacology data”:

Assays:
[1] = biological target: T1, Muscarinic acetylcholine receptor M2 (Homo sapiens, UniProt P08172); assay type: cell membranes, CHO-K1, Membrane; details: cho-k1; further: in other assays of this panel Not Active means under 50% inhibition at 10 µM
T1 sequence (P08172 whole entry): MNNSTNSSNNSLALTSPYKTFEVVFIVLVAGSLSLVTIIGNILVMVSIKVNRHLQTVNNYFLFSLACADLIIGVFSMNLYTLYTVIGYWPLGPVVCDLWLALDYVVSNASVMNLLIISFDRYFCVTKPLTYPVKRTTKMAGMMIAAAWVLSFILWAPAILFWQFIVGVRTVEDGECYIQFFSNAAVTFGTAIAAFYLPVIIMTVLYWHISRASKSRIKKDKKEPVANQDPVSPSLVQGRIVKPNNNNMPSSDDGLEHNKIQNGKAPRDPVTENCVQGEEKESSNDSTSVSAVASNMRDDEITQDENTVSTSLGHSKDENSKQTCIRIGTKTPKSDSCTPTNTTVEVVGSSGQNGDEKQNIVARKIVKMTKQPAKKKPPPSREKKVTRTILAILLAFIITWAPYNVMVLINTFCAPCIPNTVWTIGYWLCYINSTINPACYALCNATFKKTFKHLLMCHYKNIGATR

[2] = biological target: Beta-1 adrenergic receptor (Homo sapiens, UniProt P08588); assay: DRUGMATRIX: Adrenergic beta1 radioligand binding (ligand: [125I] Cyanopindolol); assay type: cell membranes, CHO-K1, Membrane; details: cho-k1; Not Active = under 50% inhibition at 10 µM
Beta-1 adrenergic receptor, sequence (P08588 whole entry): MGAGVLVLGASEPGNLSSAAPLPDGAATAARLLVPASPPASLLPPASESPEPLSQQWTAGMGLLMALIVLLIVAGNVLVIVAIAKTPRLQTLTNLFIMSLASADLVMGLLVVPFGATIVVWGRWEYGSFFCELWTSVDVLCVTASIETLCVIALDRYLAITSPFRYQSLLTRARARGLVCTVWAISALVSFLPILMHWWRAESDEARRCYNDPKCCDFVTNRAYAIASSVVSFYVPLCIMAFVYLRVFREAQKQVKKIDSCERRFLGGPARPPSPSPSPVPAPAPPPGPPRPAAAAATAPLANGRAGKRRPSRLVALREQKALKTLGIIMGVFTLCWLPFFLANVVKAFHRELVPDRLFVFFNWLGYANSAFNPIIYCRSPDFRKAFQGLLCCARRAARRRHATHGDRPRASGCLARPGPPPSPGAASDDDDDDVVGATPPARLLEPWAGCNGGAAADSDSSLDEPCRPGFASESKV

[3] = biological target: T2, 5-hydroxytryptamine receptor 1A (Rattus norvegicus, UniProt P19327); assay type: cell membranes, CHO-K1, Membrane; details: cho-k1; further: in other assays of this panel Not Active means under 50% inhibition at 10 µM
T2 sequence (P19327 whole entry): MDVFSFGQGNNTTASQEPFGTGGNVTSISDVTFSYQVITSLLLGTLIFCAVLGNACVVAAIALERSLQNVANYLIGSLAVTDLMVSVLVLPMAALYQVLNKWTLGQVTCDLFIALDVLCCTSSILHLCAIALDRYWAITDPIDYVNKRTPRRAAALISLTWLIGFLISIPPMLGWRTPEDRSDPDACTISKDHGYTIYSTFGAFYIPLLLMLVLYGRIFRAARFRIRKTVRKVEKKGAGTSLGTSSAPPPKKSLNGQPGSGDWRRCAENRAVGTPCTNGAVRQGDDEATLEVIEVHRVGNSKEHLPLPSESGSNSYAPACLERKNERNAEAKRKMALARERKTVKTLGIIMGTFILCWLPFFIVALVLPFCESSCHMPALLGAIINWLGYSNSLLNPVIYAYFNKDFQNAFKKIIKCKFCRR

[4] = biological target: C-C chemokine receptor type 2 (Homo sapiens, UniProt P41597); assay type: cell membranes, CHO-K1, Membrane; details: cho-k1; further: in other assays of this panel Not Active means under 50% inhibition at 10 µM
C-C chemokine receptor type 2, sequence (P41597 whole entry): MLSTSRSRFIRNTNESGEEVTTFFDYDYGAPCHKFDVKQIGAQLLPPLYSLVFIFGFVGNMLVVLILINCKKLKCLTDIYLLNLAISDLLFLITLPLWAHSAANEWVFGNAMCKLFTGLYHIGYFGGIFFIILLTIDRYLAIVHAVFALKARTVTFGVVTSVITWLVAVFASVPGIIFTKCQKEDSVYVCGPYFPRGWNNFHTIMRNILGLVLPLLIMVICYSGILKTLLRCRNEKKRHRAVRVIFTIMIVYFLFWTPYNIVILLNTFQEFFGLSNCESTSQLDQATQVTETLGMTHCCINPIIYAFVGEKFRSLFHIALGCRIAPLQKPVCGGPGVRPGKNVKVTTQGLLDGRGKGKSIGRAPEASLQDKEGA

[5] = biological target: T3, Receptor-type tyrosine-protein phosphatase C (Homo sapiens, UniProt P08575); set-up: species or system Escherichia coli;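 further: inhibition of CD45 enzyme activity measured using DiFMUP as substrate; in other assays of this panel Not Active means under 50% inhibition at 10 µM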
T3 sequence (P08575 whole entry): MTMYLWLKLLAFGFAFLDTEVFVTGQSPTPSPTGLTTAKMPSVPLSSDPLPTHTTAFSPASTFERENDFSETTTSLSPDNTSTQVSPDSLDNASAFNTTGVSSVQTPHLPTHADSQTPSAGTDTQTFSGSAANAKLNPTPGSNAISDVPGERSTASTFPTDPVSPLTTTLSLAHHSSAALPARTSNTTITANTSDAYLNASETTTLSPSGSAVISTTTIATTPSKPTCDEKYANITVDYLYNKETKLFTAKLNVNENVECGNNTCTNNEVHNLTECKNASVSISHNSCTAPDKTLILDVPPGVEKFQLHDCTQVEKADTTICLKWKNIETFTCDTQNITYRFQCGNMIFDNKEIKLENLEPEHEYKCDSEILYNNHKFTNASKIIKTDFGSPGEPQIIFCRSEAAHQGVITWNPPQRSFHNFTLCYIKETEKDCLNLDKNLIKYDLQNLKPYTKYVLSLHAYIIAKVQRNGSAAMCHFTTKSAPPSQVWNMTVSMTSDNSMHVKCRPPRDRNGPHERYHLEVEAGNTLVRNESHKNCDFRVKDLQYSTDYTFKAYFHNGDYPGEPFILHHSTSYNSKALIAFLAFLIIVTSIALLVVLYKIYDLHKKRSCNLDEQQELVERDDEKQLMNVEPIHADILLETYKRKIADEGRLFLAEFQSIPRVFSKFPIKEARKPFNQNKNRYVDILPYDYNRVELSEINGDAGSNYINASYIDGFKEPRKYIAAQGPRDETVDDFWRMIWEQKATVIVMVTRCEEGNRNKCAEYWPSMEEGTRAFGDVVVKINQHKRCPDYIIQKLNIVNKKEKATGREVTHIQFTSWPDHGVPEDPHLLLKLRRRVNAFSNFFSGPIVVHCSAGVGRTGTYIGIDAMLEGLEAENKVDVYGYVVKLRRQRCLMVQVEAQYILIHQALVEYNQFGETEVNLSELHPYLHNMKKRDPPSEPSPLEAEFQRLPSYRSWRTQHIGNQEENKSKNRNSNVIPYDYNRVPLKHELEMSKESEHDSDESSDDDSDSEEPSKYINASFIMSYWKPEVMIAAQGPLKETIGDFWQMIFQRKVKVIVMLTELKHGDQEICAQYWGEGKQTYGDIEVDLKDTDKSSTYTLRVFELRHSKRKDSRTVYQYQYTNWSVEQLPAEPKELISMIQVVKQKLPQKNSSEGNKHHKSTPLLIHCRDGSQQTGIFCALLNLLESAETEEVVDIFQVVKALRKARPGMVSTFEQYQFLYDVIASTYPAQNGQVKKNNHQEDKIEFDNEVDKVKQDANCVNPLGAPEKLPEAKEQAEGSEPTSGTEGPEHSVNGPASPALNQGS

Nitric oxide synthase 1 = Nitric oxide synthase 1 (Rattus norvegicus, UniProt P29476); assay type: tissue-based, Cerebellum; further: in other assays of this panel Not Active means under 50% inhibition at 10 µM
Nitric oxide synthase 1, sequence (P29476 whole entry): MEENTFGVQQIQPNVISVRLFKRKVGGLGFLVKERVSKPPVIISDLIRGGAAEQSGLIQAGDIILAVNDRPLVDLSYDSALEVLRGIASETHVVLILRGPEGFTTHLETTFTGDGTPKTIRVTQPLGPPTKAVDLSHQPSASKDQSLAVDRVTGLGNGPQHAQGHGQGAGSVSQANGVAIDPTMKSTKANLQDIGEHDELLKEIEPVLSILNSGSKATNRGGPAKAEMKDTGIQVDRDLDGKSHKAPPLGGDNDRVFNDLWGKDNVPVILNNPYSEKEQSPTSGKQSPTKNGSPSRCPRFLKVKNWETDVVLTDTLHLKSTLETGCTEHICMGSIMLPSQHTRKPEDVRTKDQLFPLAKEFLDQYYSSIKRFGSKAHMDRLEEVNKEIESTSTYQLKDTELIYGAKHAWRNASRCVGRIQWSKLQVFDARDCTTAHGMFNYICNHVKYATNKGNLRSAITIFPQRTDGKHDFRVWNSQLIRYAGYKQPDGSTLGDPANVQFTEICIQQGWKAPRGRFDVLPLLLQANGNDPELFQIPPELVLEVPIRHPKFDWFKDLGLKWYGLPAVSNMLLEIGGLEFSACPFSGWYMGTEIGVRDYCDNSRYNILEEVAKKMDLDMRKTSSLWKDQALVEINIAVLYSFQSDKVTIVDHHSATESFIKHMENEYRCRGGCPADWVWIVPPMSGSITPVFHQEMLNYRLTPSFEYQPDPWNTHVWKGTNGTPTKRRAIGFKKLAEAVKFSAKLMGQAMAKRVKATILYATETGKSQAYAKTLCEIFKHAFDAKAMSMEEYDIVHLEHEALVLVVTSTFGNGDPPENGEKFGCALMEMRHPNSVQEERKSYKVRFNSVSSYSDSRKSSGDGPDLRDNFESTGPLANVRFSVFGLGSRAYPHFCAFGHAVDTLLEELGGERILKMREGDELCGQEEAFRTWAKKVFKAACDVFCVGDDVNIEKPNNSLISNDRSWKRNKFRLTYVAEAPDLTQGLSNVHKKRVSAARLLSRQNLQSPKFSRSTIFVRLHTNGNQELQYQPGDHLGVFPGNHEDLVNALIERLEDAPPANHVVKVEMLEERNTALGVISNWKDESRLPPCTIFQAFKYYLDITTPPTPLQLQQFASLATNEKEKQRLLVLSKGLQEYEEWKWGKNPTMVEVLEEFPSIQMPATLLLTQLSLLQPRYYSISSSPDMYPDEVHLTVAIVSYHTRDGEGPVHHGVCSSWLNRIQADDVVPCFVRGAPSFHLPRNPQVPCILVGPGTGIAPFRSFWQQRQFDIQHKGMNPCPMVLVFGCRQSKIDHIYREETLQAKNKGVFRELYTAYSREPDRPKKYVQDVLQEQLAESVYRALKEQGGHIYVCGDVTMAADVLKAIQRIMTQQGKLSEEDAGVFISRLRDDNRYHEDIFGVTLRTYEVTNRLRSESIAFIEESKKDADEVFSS

[6] = biological target: Platelet-activating factor receptor (Homo sapiens, UniProt P25105); assay type: tissue-based; further: in other assays of this panel Not Active means under 50% inhibition at 10 µM
Platelet-activating factor receptor, sequence (P25105 whole entry): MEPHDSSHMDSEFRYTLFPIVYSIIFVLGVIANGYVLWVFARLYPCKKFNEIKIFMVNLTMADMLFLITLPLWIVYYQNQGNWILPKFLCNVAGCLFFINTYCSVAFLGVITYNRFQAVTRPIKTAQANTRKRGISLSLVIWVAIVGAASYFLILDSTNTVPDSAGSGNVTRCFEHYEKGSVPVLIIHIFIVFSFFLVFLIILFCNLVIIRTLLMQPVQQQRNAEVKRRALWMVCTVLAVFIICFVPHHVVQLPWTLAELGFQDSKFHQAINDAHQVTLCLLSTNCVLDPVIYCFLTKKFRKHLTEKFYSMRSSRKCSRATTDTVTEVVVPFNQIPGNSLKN

Measured: IC50

CCCCCCNC(=O)n1cc(F)c(=O)[nH]c1=O [CARMOFUR]
Not Active: all assays above

O=C(O)CCc1nc(-c2ccccc2)c(-c2ccccc2)o1 [OXAPROZIN]
Not Active: all assays above

CCN1C[C@]2(COC)[C@H](O)C[C@H](OC)[C@@]34[C@@H]5C[C@@]6(O)[C@H](OC(=O)c7ccccc7)[C@@H]5[C@@](OC(C)=O)([C@@H]([C@H](OC)[C@H]23)[C@@H]14)[C@@H](O)[C@@H]6OC [ACONITINE]
Not Active: all assays above

Oc1ccccc1 [PHENOL]
Not Active: all assays above

Nc1nc(F)nc2c1ncn2[C@@H]1O[C@H](CO)[C@@H](O)[C@@H]1O [FLUDARABINE]
Not Active: all assays above

O=C1CN(/N=C/c2ccc([N+](=O)[O-])o2)C(=O)N1 [NITROFURANTOIN]
Not Active: all assays above

CC12CCC(CC1=O)C2(C)C (stereo not given) [CAMPHOR]
Not Active: all assays above

Nc1nc(N)c2nc(CNc3ccc(C(=O)N[C@@H](CCC(=O)O)C(=O)O)cc3)cnc2n1 [AMINOPTERIN]
Not Active: all assays above

OC[C@H]1O[C@@H]2O[C@H]3[C@H](O)[C@@H](O)[C@@H](O[C@H]4[C@H](O)[C@@H](O)[C@@H](O[C@H]5[C@H](O)[C@@H](O)[C@@H](O[C@H]6[C@H](O)[C@@H](O)[C@@H](O[C@H]7[C@H](O)[C@@H](O)[C@@H](O[C@H]1[C@H](O)[C@H]2O)O[C@@H]7CO)O[C@@H]6CO)O[C@@H]5CO)O[C@@H]4CO)O[C@@H]3CO [ALFADEX]
Not Active: all assays above

O=C(O)CNCP(=O)(O)O [GLYPHOSATE]
Not Active: all assays above

O=C(Nc1ccc(Cl)c(Cl)c1)c1cc(Cl)cc(Cl)c1O [3,3',4',5-TETRACHLOROSALICYLANILIDE]
Not Active: all assays above

COC(=O)Nc1nc2ccc(Sc3ccccc3)cc2[nH]1 [FENBENDAZOLE]
Not Active: all assays above

Nc1ccc(C(=O)O)c(O)c1 [AMINOSALICYLIC ACID]
Not Active: all assays above

COC(=O)C[C@](O)(CCC(C)(C)O)C(=O)O[C@@H]1C(OC)=C[C@]23CCCN2CCc2cc4c(cc2[C@H]13)OCO4 [HARRINGTONINE]
Not Active: all assays above

COc1cc(NC(C)CCCN)c2ncccc2c1 (stereo not given) [PRIMAQUINE]
Not Active: all assays above
